Data on 3 molecules can be found in PMC8491401, “Phytochemical analysis, antioxidant and in vitro β-galactosidase inhibition activities of Juniperus phoenicea and Calicotome villosa methanolic extracts” (BMC Chemistry, 2021).

For series [1], the target named is T1, β-Galactosidase from Aspergillus oryzae (Aspergillus oryzae, UniProt Q2UCU3).
T1 construct: gene lacA; commercial enzyme from Sigma-Aldrich, secreted fungal enzyme; construct details not given
T1 sequence (Q2UCU3 19-1005): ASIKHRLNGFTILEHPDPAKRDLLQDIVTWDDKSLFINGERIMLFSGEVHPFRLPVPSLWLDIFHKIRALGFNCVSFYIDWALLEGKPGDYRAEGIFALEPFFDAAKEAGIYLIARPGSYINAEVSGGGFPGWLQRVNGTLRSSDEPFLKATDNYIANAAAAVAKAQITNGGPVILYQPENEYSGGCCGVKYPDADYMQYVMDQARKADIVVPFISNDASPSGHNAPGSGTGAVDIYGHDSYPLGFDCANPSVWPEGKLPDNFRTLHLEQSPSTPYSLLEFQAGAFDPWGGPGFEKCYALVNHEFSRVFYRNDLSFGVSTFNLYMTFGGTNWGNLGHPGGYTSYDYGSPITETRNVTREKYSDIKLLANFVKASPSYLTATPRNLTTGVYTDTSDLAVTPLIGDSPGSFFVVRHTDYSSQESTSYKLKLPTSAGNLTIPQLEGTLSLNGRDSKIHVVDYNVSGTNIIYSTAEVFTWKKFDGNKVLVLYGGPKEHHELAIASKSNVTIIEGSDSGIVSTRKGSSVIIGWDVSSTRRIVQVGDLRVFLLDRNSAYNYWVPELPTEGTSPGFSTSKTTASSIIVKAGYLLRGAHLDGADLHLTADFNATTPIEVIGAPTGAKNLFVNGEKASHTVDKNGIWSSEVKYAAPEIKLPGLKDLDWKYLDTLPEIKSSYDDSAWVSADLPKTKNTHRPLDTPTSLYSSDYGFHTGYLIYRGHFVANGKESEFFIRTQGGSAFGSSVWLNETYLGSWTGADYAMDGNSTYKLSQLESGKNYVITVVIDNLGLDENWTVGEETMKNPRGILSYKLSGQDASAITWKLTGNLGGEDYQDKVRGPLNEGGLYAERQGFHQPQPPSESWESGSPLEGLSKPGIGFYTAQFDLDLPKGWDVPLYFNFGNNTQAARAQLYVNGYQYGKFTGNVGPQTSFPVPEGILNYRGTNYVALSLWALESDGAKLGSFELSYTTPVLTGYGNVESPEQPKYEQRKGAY
As to the kind of experiment: ONPG hydrolysis, absorbance at […] nm. Format: biochemical.

For series [2], the target named is T1, β-Galactosidase from Aspergillus oryzae. As to the kind of experiment: Lineweaver-Burk, ONPG hydrolysis. Format: biochemical. The following applies: pH 4.5, 30 °C, mixed, read-out: Ki (mg/ml) (converted). An excerpt:
Lineweaver-Burk, ONPG hydrolysis on β-Galactosidase from Aspergillus oryzae

Substrate in series [3]: O=[N+]([O-])c1ccccc1O[C@@H]1O[C@H](CO)[C@H](O)[C@H](O)[C@H]1O
As to the kind of experiment: Lineweaver-Burk, ONPG hydrolysis. In kind it is biochemical, Aspergillus oryzae. The conditions noted are these: pH 4.5, 30 °C, no inhibitor. An excerpt: Lineweaver-Burk, ONPG hydrolysis on β-Galactosidase from Aspergillus oryzae | Km and Vmax were obtained by a typical double reciprocal Lineweaver Burk plot

Where two headings read alike, the source gives them in different places.

Consider `OC[C@H]1OC(O)[C@H](O)[C@@H](O)[C@H]1O` (stereo partly shown) [Galactose], for which the half-maximal inhibitory concentration (IC50) in series [1] (ONPG 20 µmol in 4 ml, 0.1 M citrate-phosphate pH 4.5, 30 °C, mixed) is 3.33 mM. The Ki in series [2] was 10.4 mM. In series [1], `C[C@@H]1O[C@@H](OC[C@H]2O[C@@H](Oc3c(-c4ccc(O)c(O)c4)oc4cc(O)cc(O)c4c3=O)[C@H](O)[C@@H](O)[C@@H]2O)[C@H](O)[C@H](O)[C@H]1O` [Rutin] had an IC50 of 0.123 mM.

B1: β-Galactosidase from Aspergillus oryzae (Aspergillus oryzae RIB40) (protein)
chain: T1 sequence (Q2UCU3 19-1005)
notes: commercial enzyme from Sigma-Aldrich, secreted fungal enzyme; construct details not given
Regarding B1, in series [3], the Km is 1310 ± 91 µM.
